From paper PMC9811466, “Structural Features Affecting the Interactions and Transportability of LAT1-Targeted Phenylalanine Drug Conjugates” (Molecular Pharmaceutics, 2022) come the findings set out here.

As usually defined, the inhibition is how much of the control response was suppressed. For orientation: IC50 means the concentration that inhibits the measured activity by half.

The target of data set [1] is T1, LAT1 in MCF-7 human breast cancer cells (Homo sapiens, UniProt Q01650).
T1 construct: wild-type MCF-7 human breast cancer cell line; endogenous in cells; host or cells: MCF-7 human breast cancer cells (wild type)
Kind of data set: cis-inhibition of [14C]-L-leucine uptake in MCF-7 cells. Type of data set: cell-based. The method, then:
Cells were cultured in DMEM (Gibco, ThermoFisher Scientific, Waltham, MA, USA) supplemented with L-glutamine (2 mM; ThermoFisher Scientific, Waltham, MA, USA), heat-inactivated fetal bovine serum (10%; Gibco, ThermoFisher Scientific, Waltham, MA, USA), penicillin (50 U/mL)-streptomycin (50 μg/mL) solution (ThermoFisher Scientific, Waltham, MA, USA), and hygromycin B solution (100 μg/mL) for transfected cells. HEK-hLAT1 and HEK-MOCK cells (passages 7–20) were seeded at a density of 5 × 10^5 cells/wells onto 24-well plates. The cells were used in the characterization, competition, and uptake studies 2 days after seeding. MCF-7 cells were seeded at a density of 1 × 10^5 and were used in the competition studies 1 day after seeding. The culture medium was removed, and the cells were washed with prewarmed Hanks’ balanced salt solution (HBSS; 125 mM NaCl, 4.8 mM KCl, 1.2 mM MgSO4, 1.2 mM KH2PO4, 1.3 mM CaCl2, 5.6 mM D-glucose, and 25 mM HEPES, pH 7.4). The cells were then incubated with HBSS at 37 °C for 10 min before the experiments.
(§1) In the following experiments, the MCF-7, HEK-hLAT1, and HEK-MOCK cells were cultured, seeded, and preincubated as described above. The HBSS was removed, and the ability of the compounds to inhibit the uptake of a known LAT1 substrate, [^14C]-L-leucine (PerkinElmer, Waltham, MA, USA), was studied by incubating the cells at RT for 10 min in uptake buffer pH 7.4 (250 μL) containing 0.76 μM (0.1 mCi/mL) of [^14C]-L-leucine and 0.025–1800 μM of the studied compound (or HBSS as blank). After incubation, the reaction was stopped with ice-cold HBSS, and the cells were washed two times with ice-cold HBSS. The cells were then lysed with 250 μL of 0.1 M sodium hydroxide, the lysate was mixed with 1.0 mL of Emulsifier safe cocktail (PerkinElmer, Waltham, MA, USA), and the radioactivity was measured with a liquid scintillation counter (MicroBeta^2 counter, PerkinElmer, Waltham, MA, USA). The inhibition of [^14C]-L-leucine in the presence of the studied compounds as compared to the control (HBSS) was calculated as percentages (%).

The next data set addresses T2, hLAT1/4F2hc (Homo sapiens, UniProt Q01650).
T2 construct: Invitrogen (host cells)
The data set is described as follows: cis-inhibition of [14C]-L-leucine uptake in HEK-hLAT1 cells. Particulars: HEK-hLAT1 cells, compounds 1-12. Type of data set: cell-based. The method, then:
as §1
Using the stably hLAT1/4F2hc expressing cell line, the compounds’ inhibitory efficiencies and uptake kinetics were determined via the cis-inhibition assay and uptake studies, respectively. (Table 1) Cis-inhibition is based on the competition between the ligand and LAT1 substrate [^14C]-L-leucine that results in inhibition of substrate uptake. The competitive uptake with L-leucine is reported as the IC50 value of L-leucine uptake and extent as inhibition percentage (%) at a given concentration.

A short description of data set [2]: Conversion of ester conjugate in 0.1 M NaOH (sample lysis). It is filed as physicochemical. The procedure:
For compound 9, the LLOQ was 0.05 nM with good linearity (R^2 > 0.983).[34] For the compounds 1, 7, and 12, the LLOQ was 12.5 nM, with a linear range of 12.5–2500 nM, and for 11, the LLOQ was 6.3 nM, over the range of 6.3–6250 nM.[28] For 10, the calibration curve was linear with a LLOQ of 1 ng/mL (accuracy ±15%), respectively.[26] For compounds 2–5, the LLOQ was 5.0 nM.[29] Methods were also selective, accurate (RSD < 15%), and precise (RSD < 15%) over the range of 5.0–1000 nM for 5 and for compounds 2–4 5.0–2000 nM. For compound 6, the LLOQ was 10 pmol/g.[33] Ketoprofen was linear with a range of 0.25–25 ng/mL, while compound 8 was completely converted to ketoprofen in 0.1 M NaOH within 30 min.

T1 sequence (Q01650 whole entry): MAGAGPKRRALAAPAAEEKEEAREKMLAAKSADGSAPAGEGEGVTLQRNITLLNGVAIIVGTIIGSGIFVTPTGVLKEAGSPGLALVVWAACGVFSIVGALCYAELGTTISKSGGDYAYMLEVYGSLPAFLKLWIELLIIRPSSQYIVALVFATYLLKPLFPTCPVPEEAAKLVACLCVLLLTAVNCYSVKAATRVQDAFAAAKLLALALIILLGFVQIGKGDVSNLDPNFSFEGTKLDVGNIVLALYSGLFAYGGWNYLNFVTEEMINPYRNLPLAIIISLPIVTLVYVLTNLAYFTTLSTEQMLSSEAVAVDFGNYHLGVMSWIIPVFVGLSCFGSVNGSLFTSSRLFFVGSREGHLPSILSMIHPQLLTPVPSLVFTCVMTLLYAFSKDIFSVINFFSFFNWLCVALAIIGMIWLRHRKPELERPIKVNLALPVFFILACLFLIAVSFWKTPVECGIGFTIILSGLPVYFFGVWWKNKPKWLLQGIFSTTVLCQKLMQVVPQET
T1 sequence (P08195 102-630 partner): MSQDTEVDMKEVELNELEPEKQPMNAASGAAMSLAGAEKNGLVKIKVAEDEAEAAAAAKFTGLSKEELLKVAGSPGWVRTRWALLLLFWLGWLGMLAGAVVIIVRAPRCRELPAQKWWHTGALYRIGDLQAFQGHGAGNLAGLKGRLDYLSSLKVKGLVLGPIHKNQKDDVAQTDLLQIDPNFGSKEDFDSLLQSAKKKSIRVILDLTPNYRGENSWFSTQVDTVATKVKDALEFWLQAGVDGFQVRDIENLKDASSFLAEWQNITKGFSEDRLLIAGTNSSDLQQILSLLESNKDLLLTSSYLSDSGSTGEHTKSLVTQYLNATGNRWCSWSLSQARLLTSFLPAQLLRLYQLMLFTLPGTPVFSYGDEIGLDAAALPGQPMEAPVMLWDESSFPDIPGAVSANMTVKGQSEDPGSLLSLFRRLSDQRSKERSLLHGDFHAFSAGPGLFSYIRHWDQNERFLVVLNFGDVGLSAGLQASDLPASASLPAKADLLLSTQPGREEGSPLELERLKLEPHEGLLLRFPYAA
T2 sequence (Q01650 whole entry): as the sequence (Q01650 whole entry) above
T2 sequence (P08195 102-630 partner): as the sequence (P08195 102-630 partner) above

Regarding `CC(C(=O)Oc1cccc(C[C@H](N)C(=O)O)c1)c1cccc(C(=O)c2ccccc2)c1` (some centres unmarked) [Compound 8], the inhibition at 50 µM in data set [1] (MCF7, MCF-7 cells, 50 μM compound) was 83 ± 0.9%; on hLAT1/4F2hc (50 μM compound, read-out: [14C]-L-Leucine uptake inhibition % (50μM)), 24 ± 2.3%. Further, the IC50 is 400 ± 80 nM in data set [1] (MCF-7 cells) and more than 100000 nM at hLAT1/4F2hc (read-out: IC50 of [14C]-L-leucine uptake). The “time to complete conversion to ketoprofen” value in data set [2] is not above 30 min.
